Series [1] is described as follows: Solubility remark in the isolated rat vas deferens test (Table II). In kind it is physicochemical. As to conditions: under pA2 in Table II, value N.D.
The test system of series [2] is toxicity of norepinephrine. As to the kind of experiment: Adrenolytic activity in vivo in rats (protection against norepinephrine lethality). As to conditions: for ED50: Rattus norvegicus, oral 30 minutes before i.v. norepinephrine 0.4 mg.kg^-1, dose protecting 50 percent of animals. The protocol:
4. Determination of the Adrenolytic Activity "In Vivo" in Rats
The intravenous injection of norepinephrine (0.4 mg.kg^-1) in wake rats causes the death of 100 percent of the animals. The prior administration of a substance with an alpha-blocking property makes it possible to reduce this toxicity.
The products claimed were administered orally 30 minutes before the intravenous injection of norepinephrine.
These are expressed in the form of the 50% effective dose (ED50), i.e. the dose, in mg.kg^-1, which protects 50 percent of the animals.

Series [3] is described as follows: Acute toxicity in mice, single oral dose. To be noted: mouse, in vivo, p.o., 14-day observation. The protocol: The products were administered orally to mice in a single dose. After a 14-day observation period, the mortality was recorded.
The results are expressed in the form of the 50% lethal dose (LD50) in mg.kg^-1.

For series [4], the system named is postsynaptic alpha-adrenergic receptors. In words: Alpha-blocking activity on isolated rabbit ureter. In kind it is cell-based. To be noted: norepinephrine contraction halved, printed in Table II with asterisk. The source says: 3. Determination of the Alpha-Blocking Activity on Isolated Rabbit Ureter
Stimulation of the postsynaptic alpha-adrenergic receptors by norepinephrine causes contraction of the isolated rabbit ureter.
The aim is to find the product concentration in whose presence the contracting effect of a given norepinephrine concentration is halved by comparison with the contraction induced before the addition of said product.
The logarithm of this concentration, with its sign changed, represents the pD'2 value.

In the next series the test system is arterial pressure. As to the kind of experiment: Norepinephrine-induced arterial hyperpressure in anesthetized rabbits. In kind it is in vivo. As to conditions: Oryctolagus cuniculus, iv, norepinephrine i.v., 50% inhibition of increase in arterial pressure, read-out: Arterial pressure ID50. The protocol:
(§1) 5. Activity on Ureteral Hyperpressure in Rabbits
(§2) An increase in the arterial pressure and the ureteral pressure is induced in anesthetized rabbits by an intravenous injection of norepinephrine. These hyperpressures can be inhibited by the prior administration of molecules with alpha-blocking potential.
The efficacy is assessed by the 50% inhibitory dose (ID50), i.e. the dose which inhibits the increases in arterial and ureteral pressures by 50 percent.

A further series deals with ureteral pressure. In words: Norepinephrine-induced ureteral hyperpressure in anesthetized rabbits. In kind it is in vivo.
Excerpt: as §1, §2

Structures can show the parent of a compound that is named as a salt.

In the case of `Cc1ccc(C(C)C)c(OCCN2CCN(c3ccc(Cl)c(Cl)c3)CC2)c1` [B.1184, 3-[2-4-(3,4-dichloro)phenylpiperazin-1-yl)ethoxy]-p-cymene hydrochloride], the solubility remark result in series [1] is given as “insoluble”. The compound also showed an ED50 in series [2] greater than 100 mg/kg. In addition, the LD50 (usually the dose at which mortality reaches 50%) at 336 h in series [3] was greater than 1000 mg/kg.
As for `Cc1ccc(C(C)C)c(OCCN2CCN(c3ccccc3OC(C)C)CC2)c1` [B.1399], the “pD'2” value in series [4] is given as 6.69. In addition, the ED50 is 0.78 mg/kg in series [2]; 1.64 mg/kg in the series on arterial pressure; 0.18 mg/kg in the series with ureteral pressure (Oryctolagus cuniculus, iv, norepinephrine i.v., 50% inhibition of increase in ureteral pressure, read-out: Ureteral pressure ID50). The “protection against the toxicity of norepinephrine (in words)” value in series [2] (oral) is “excellent protection against the toxicity of norepinephrine”. The compound further displayed a median lethal dose (LD50) at 336 h in series [3] of roughly 500 mg/kg. Moreover, in the series on ureteral pressure (I.V.), the “ratio of ID50 arterial pressure to ID50 ureteral pressure” value is 9.1.
